Details: Liquid, Vibrating tube method

CCCCCC(=O)OCC(COC(=O)CCCCC)(COC(=O)CCCCC)COC(=O)CCCCC [pentaerythritol tetrahexanoate]
Details	mass density [kg/m3]
303.17 K, 1567.2 kPa	989.3
303.17 K, 1583.5 kPa	989.4
303.17 K, 1597.3 kPa	989.4
303.17 K, 1611.3 kPa	989.4
303.17 K, 1628.3 kPa	989.5
303.17 K, 5535.7 kPa	992
303.17 K, 5553.1 kPa	991.9
303.17 K, 5573.9 kPa	992
303.17 K, 17353 kPa	999.2
303.17 K, 32996 kPa	1008
303.17 K, 33019 kPa	1007.9
303.17 K, 33039 kPa	1007.9
303.17 K, 33058 kPa	1008
303.17 K, 33082 kPa	1008.1
303.17 K, 33102 kPa	1007.9
303.17 K, 33125 kPa	1008
303.17 K, 33145 kPa	1008
303.17 K, 33165 kPa	1007.9
323.14 K, 384.5 kPa	973
323.14 K, 386.4 kPa	972.9
323.14 K, 388.7 kPa	972.8
323.14 K, 391.1 kPa	972.8
323.14 K, 393.7 kPa	972.9
323.14 K, 396.7 kPa	972.9
323.14 K, 398.7 kPa	973
323.14 K, 401.3 kPa	973
323.14 K, 403.6 kPa	972.9
323.14 K, 406.6 kPa	972.9
323.14 K, 408.8 kPa	972.9
323.14 K, 411.4 kPa	973
323.14 K, 414.9 kPa	972.9
323.14 K, 417.5 kPa	972.8
323.14 K, 420.5 kPa	972.9
323.14 K, 423.2 kPa	973
323.14 K, 426 kPa	972.9
323.14 K, 429.2 kPa	972.9
323.14 K, 431.6 kPa	972.9
323.14 K, 434.7 kPa	973.1
323.14 K, 438 kPa	972.9
323.14 K, 440.8 kPa	972.9
323.14 K, 477.3 kPa	972.9
323.14 K, 481.1 kPa	973
323.14 K, 484.4 kPa	972.9
323.14 K, 488.9 kPa	972.9
323.14 K, 492.6 kPa	973
323.14 K, 495.7 kPa	973
323.14 K, 499.5 kPa	973
323.14 K, 503.9 kPa	973
323.14 K, 507.5 kPa	973.1
323.14 K, 512.4 kPa	973.1
323.14 K, 516.2 kPa	973
323.14 K, 645.8 kPa	973.2
323.14 K, 648.1 kPa	973.1
323.14 K, 650 kPa	973
323.14 K, 652.6 kPa	973.1
323.14 K, 654.5 kPa	973.1
323.14 K, 657.1 kPa	972.9
323.14 K, 686.8 kPa	973.3
323.14 K, 689.8 kPa	973
323.14 K, 692.2 kPa	973.1
323.14 K, 694.8 kPa	973.3
323.14 K, 697.1 kPa	973.2
323.14 K, 763.3 kPa	973.2
323.14 K, 801.5 kPa	973.1
323.14 K, 803.8 kPa	973.2
323.14 K, 807.1 kPa	973.2
323.14 K, 809.5 kPa	973.2
323.14 K, 812.1 kPa	973.3
323.14 K, 858.7 kPa	973.2
323.14 K, 862.3 kPa	973.3
323.14 K, 865.1 kPa	973.2
323.14 K, 867.7 kPa	973.2
323.14 K, 916.7 kPa	973.3
323.14 K, 923.3 kPa	973.2
323.14 K, 1440.1 kPa	973.7
323.14 K, 1446.1 kPa	973.7
323.14 K, 1451.7 kPa	973.5
323.14 K, 1458.6 kPa	973.7
323.14 K, 1465.1 kPa	973.6
323.14 K, 1499.4 kPa	973.7
323.14 K, 2143.7 kPa	974.1
323.14 K, 2154.2 kPa	974.2
323.14 K, 2163.4 kPa	974.2
323.14 K, 2899 kPa	974.7
323.14 K, 2935.4 kPa	974.6
323.14 K, 2971.1 kPa	974.8
323.14 K, 2984.1 kPa	974.9
323.14 K, 2995.2 kPa	974.8
323.14 K, 3008.5 kPa	974.8
323.14 K, 3019.8 kPa	974.7
323.14 K, 3032.8 kPa	974.8
323.14 K, 3043.7 kPa	974.8
323.14 K, 3057.4 kPa	974.8
323.14 K, 3071.1 kPa	974.7
323.14 K, 3082.4 kPa	974.9
323.14 K, 3093.6 kPa	974.9
323.14 K, 3107.5 kPa	974.7
323.14 K, 3120.8 kPa	974.9
323.14 K, 3132.5 kPa	975
323.14 K, 3143.7 kPa	975
323.14 K, 3157.8 kPa	974.8
323.14 K, 3169 kPa	974.9
323.14 K, 3182.6 kPa	974.9
323.14 K, 3194.3 kPa	974.9
323.14 K, 3207.9 kPa	974.9
323.14 K, 3219.3 kPa	975.1
323.14 K, 3233.3 kPa	974.9
323.14 K, 3245.1 kPa	974.9
323.14 K, 3259.7 kPa	974.9
323.14 K, 3271.8 kPa	975
323.14 K, 3285.5 kPa	975
323.14 K, 3298 kPa	974.9
323.14 K, 3312.4 kPa	975
323.14 K, 3324.7 kPa	975.1
323.14 K, 3339.9 kPa	975.1
323.14 K, 3353.1 kPa	975
323.14 K, 3384.1 kPa	975
323.14 K, 3463.3 kPa	975.1
323.14 K, 3495.4 kPa	975.1
323.14 K, 4052.6 kPa	975.6
323.14 K, 4071.6 kPa	975.6
323.14 K, 4087 kPa	975.6
323.14 K, 4103.5 kPa	975.6
323.14 K, 4122.2 kPa	975.5
323.14 K, 4176.9 kPa	975.4
323.14 K, 4193.2 kPa	975.6
323.14 K, 4530.6 kPa	975.9
323.14 K, 4548.8 kPa	975.8
323.14 K, 4570.3 kPa	975.9
323.14 K, 4588.6 kPa	975.9
323.14 K, 4610.6 kPa	976
323.14 K, 4632.6 kPa	975.9
323.14 K, 4650.7 kPa	976
323.14 K, 4669.3 kPa	975.9
323.14 K, 4691.8 kPa	975.9
323.14 K, 4714.6 kPa	975.9
323.14 K, 4733.6 kPa	976
323.14 K, 4753.2 kPa	975.9
323.14 K, 4776.2 kPa	975.9
323.14 K, 4795.8 kPa	976.1
323.14 K, 4819.1 kPa	975.9
323.14 K, 4838.9 kPa	976.1
323.14 K, 4862.6 kPa	976.2
323.14 K, 4886.4 kPa	976.1

— the NIST ThermoML archive (doi:10.1021/je060271a)
